The results in this text go back to US20230312576A1, “4-(7H-PYRROLO[2,3-D]PYRIMIDIN-4-YL)-3,6-DIHYDROPYRIDINE-1-(2H)-CARBOXAMIDE DERIVATIVES AS LIMK AND/OR ROCK KINASES INHIBITORS FOR USE IN THE TREATMENT OF CANCER” (CENTRE NATIONAL DE LA RECHERCHE SCIENTIFIQUE, priority 2020, published 2023).

For one experiment, the target named is ROCK2 (Homo sapiens (Human), UniProt O75116). The experiment in a line: Z'Lyte assay, ROCK2 inhibition at a single concentration. It is filed as biochemical.
A further experiment concerns the target LIMK2 (Homo sapiens (Human), UniProt P53671). The experiment is described as follows: Lanthascreen Eu binding assay (TR-FRET), inhibition of LIMK2.
Another experiment addresses LIMK1 (Homo sapiens (Human), UniProt P53667). The experiment is described as follows: Lanthascreen Eu binding assay (TR-FRET), inhibition of LIMK1.
The next experiment addresses ROCK1 (Homo sapiens (Human), UniProt Q13464). The experiment is described as follows: Z'Lyte assay, ROCK1 inhibition at a single concentration. Format: biochemical.
[1] abbreviates: read-out: % inhibition (ROCK2) 1 uM.
The mark [2] stands for this setting: read-out: % inhibition (ROCK1) 1 uM.
[3] abbreviates: read-out: % inhibition (ROCK2) 1 uM, 1 uM.
Setting [4] is: read-out: % inhibition (ROCK1) 1 uM, 1 uM.

Where two headings read alike, the source gives them in different places.

Sequence of LIMK1 (P53667 whole entry): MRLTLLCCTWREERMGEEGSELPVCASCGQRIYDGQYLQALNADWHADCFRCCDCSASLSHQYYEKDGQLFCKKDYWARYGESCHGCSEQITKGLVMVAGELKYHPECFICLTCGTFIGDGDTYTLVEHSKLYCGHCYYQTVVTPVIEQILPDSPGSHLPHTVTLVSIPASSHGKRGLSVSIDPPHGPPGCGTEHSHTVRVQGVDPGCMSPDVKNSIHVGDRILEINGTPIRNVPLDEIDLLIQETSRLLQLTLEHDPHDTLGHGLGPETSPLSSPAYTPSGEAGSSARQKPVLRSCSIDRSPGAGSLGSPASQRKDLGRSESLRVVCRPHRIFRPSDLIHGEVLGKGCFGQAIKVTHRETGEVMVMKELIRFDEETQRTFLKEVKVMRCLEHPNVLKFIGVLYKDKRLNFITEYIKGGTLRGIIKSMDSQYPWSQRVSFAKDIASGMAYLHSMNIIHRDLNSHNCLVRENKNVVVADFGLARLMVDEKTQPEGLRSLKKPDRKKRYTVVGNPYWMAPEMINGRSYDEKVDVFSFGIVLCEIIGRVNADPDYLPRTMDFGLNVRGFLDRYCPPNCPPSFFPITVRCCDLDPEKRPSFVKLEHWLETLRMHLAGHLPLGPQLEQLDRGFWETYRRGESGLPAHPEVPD
Sequence of LIMK2 (P53671 whole entry): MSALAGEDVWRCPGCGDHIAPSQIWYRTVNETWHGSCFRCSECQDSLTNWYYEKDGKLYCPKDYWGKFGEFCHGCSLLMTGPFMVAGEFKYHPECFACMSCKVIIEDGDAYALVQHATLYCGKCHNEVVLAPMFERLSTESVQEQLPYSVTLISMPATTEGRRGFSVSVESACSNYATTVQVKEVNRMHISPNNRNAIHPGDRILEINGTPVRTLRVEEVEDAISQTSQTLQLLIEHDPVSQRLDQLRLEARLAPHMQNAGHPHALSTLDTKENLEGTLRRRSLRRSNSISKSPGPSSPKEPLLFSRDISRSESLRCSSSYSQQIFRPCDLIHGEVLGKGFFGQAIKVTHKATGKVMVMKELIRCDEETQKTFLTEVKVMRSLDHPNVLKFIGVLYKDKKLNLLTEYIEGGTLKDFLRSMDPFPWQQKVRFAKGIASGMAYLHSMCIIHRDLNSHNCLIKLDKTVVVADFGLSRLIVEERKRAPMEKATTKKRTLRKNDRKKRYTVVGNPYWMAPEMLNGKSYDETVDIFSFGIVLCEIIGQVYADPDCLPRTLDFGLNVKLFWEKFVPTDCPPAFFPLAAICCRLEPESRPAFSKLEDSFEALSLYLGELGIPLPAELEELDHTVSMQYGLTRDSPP
Sequence of ROCK1 (Q13464 whole entry): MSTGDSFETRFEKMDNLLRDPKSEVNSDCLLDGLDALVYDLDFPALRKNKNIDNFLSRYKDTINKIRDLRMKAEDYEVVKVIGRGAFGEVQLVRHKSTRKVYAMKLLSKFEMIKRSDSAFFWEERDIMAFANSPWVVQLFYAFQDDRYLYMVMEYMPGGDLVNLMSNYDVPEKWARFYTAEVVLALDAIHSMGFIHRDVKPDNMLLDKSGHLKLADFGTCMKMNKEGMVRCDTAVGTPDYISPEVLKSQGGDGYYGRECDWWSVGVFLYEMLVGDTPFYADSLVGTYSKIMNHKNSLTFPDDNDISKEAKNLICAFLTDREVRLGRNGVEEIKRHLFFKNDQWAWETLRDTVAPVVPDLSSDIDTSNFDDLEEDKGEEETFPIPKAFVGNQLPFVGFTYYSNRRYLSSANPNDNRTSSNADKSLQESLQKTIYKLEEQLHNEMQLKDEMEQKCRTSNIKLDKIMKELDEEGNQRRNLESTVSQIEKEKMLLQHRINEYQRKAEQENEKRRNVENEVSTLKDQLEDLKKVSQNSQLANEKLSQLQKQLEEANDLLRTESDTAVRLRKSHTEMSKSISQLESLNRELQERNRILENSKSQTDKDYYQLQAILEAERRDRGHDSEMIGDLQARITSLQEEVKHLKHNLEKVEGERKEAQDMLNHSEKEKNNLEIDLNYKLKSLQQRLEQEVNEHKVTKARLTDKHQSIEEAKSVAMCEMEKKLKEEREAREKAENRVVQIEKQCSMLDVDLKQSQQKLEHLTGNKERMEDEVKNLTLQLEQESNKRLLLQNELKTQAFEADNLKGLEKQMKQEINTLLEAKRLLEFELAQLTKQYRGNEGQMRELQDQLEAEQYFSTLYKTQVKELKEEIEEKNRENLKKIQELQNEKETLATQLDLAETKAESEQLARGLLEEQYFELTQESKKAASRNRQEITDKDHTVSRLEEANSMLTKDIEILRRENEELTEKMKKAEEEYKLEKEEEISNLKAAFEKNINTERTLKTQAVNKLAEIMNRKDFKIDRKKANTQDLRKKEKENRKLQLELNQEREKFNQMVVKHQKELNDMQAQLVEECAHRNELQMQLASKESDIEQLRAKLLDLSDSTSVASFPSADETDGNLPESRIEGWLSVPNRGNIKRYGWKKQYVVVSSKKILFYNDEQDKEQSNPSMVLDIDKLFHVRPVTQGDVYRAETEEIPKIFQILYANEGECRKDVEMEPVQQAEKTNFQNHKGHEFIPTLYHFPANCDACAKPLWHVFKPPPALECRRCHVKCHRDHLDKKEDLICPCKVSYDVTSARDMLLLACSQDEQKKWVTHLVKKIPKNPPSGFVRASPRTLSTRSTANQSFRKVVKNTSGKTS
Sequence of ROCK2 (O75116 whole entry): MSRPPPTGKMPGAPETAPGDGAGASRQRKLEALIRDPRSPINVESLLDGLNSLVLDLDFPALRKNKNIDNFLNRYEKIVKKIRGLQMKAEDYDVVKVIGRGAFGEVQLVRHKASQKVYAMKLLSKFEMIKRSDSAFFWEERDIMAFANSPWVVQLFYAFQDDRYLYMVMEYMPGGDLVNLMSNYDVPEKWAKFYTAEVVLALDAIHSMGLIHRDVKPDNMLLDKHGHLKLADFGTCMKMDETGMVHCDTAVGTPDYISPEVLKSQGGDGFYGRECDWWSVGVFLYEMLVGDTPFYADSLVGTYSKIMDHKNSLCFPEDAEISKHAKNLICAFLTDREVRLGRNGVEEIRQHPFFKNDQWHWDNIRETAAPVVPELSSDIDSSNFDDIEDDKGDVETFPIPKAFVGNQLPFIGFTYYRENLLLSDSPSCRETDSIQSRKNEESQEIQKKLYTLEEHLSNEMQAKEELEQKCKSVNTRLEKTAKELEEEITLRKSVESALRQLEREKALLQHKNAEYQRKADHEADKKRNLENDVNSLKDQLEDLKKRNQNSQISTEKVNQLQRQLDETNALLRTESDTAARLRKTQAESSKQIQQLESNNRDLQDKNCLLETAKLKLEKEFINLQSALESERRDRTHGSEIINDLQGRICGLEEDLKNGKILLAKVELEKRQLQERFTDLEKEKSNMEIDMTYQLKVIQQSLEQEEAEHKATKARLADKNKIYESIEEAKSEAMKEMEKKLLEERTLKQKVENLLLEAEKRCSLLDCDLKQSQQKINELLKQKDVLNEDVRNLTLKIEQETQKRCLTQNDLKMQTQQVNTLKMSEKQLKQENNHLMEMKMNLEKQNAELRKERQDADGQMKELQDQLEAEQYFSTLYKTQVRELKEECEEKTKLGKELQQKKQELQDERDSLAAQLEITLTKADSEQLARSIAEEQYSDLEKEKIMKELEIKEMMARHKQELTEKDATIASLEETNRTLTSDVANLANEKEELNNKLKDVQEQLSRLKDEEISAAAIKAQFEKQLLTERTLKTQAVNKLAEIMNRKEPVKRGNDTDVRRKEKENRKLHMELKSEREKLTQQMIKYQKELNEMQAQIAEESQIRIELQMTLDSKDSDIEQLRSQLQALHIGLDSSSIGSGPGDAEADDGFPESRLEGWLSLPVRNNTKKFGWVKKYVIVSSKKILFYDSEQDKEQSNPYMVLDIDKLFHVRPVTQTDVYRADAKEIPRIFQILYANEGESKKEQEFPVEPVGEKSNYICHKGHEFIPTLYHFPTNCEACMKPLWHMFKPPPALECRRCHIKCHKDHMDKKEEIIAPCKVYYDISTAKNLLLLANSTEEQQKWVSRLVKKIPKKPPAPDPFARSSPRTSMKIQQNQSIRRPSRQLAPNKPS

`Cc1c[nH]c2ncnc(C3=CCN(C(=O)NC4CCCc5ccccc54)CC3)c12` (racemic) [Compound 34-rac, 4-(5-methyl-7H-pyrrolo[2,3-d]pyrimidin-4-yl)-N-tetralin-1-yl-3,6-dihydro-2H-pyridine-1-carboxamide]: the inhibition at 1 µM on ROCK2 (setting [1]) came out at 52%; at ROCK1 (setting [2]), 79%. Besides, the inhibitory constant (Ki) at LIMK2 (Lanthascreen Eu binding assay) came out at 742 nM; on LIMK1 (Lanthascreen Eu binding assay), 610 nM.
Turning to `Cc1c[nH]c2ncnc(C3=CCN(C(=O)Nc4ccc(Cl)c(C(F)(F)F)c4)CC3)c12` [Compound 12, N-(4-Chloro-3-(trifluoromethyl)phenyl)-4-(5-methyl-7H-pyrrolo[2,3-d]pyrimidin-4-yl)-3,6-dihydropyridine-1(2H)-carboxamide], the inhibition at 1 µM turned out to be 69% on ROCK2 (setting [3]) and 79% on ROCK1 (setting [4]).
Turning to `Cc1c[nH]c2ncnc(C3=CCN(C(=O)Nc4ccc5c(c4)OCO5)CC3)c12` [Compound 14, N-(Benzo[d][1,3]dioxol-5-yl)-4-(5-methyl-7H-pyrrolo[2,3-d]pyrimidin-4-yl)-3,6-dihydropyridine-1(2H)-carboxamide], the values for the inhibition at 1 µM at ROCK2 (setting [1]) and at ROCK1 (setting [2]) were 59% and 79%, respectively.
`Cc1c[nH]c2ncnc(C3=CCN(C(=O)Nc4ccc(Oc5ccccc5)cc4)CC3)c12` [Compound 16, 4-(5-Methyl-7H-pyrrolo[2,3-d]pyrimidin-4-yl)-N-(4-phenoxy-phenyl)-3,6-dihydropyridine-1(2H)-carboxamide]: the “% inhibition (ROCK2) 1 uM” value at ROCK2 (1 uM) stood at 14%. For the same compound, the Ki at LIMK2 (Lanthascreen Eu binding assay) came out at 341 nM; on LIMK1 (Lanthascreen Eu binding assay), 80.1 nM. Also, the “% inhibition (ROCK1) 1 uM” value at ROCK1 (1 uM) turned out to be 15%.
Regarding `CCc1cccc(NC(=O)N2CC=C(c3ncnc4[nH]cc(C)c34)CC2)c1` [Compound 20, N-(3-Ethylphenyl)-4-(5-methyl-7H-pyrrolo[2,3-d]pyrimidin-4-yl)-3,6-dihydropyridine-1(2H)-carboxamide], the inhibition at 1 µM at ROCK2 (setting [3]) came to 28%; on ROCK1 (setting [4]) it was 55%. Besides, the Ki worked out at 193 nM on LIMK2 (Lanthascreen Eu binding assay) and 162 nM on LIMK1 (Lanthascreen Eu binding assay).
For `Cc1c[nH]c2ncnc(C3=CCN(C(=O)Nc4cccc(-n5ccnc5)c4)CC3)c12` [Compound 24, N-(3-(1H-Imidazol-1-yl)phenyl)-4-(5-methyl-7H-pyrrolo[2,3-d]pyrimidin-4-yl)-3,6-dihydropyridine-1(2H)-carboxamide], the inhibition at 1 µM on ROCK2 (setting [1]) turned out to be 25%; at ROCK1 (setting [2]), 40%.
With `Cc1c[nH]c2ncnc(C3=CCN(C(=O)Nc4cccc(-n5cncn5)c4)CC3)c12` [Compound 26, N-(3-(1H-1,2,4-Triazol-1-yl)phenyl)-4-(5-methyl-7H-pyrrolo[2,3-d]pyrimidin-4-yl)-3,6-dihydropyridine-1(2H)-carboxamide], the inhibition at 1 µM turned out to be 64% at ROCK2 (setting [3]) and 85% on ROCK1 (setting [4]). The results for the Ki on LIMK2 (Lanthascreen Eu binding assay) and on LIMK1 (Lanthascreen Eu binding assay) were 90.7 nM and 278 nM, respectively.
Take `Cc1c[nH]c2ncnc(C3=CCN(C(=O)Nc4ccc(Oc5ccccc5)cc4)CC3)c12` [Compound 28, 4-(5-Methyl-7H-pyrrolo[2,3-d]pyrimidin-4-yl)-N-(4-phenoxy-phenyl)-3,6-dihydropyridine-1(2H)-carboxamide]: at ROCK2 (1 uM), the “% inhibition (ROCK2) 1 uM” value is 35%. Also, the Ki at LIMK2 (Lanthascreen Eu binding assay) was 43.6 nM; on LIMK1 (Lanthascreen Eu binding assay) it was 34.5 nM. Also, at ROCK1 (1 uM), the “% inhibition (ROCK1) 1 uM” value amounted to 76%.
As to `Cc1c[nH]c2ncnc(C3=CCN(C(=O)Nc4cccs4)CC3)c12` [Compound 33, 4-(5-methyl-7H-pyrrolo[2,3-d]pyrimidin-4-yl)-N-(2-thienyl)-3,6-dihydro-2H-pyridine-1-carboxamide], the inhibition at 1 µM on ROCK2 (setting [3]) turned out to be 87%; on ROCK1 (setting [4]), 96%. In addition, the values for the Ki at LIMK2 (Lanthascreen Eu binding assay) and on LIMK1 (Lanthascreen Eu binding assay) were 186 nM and 50.1 nM, respectively.
With `Cc1c[nH]c2ncnc(C3=CCN(C(=O)N[C@@H]4CCCc5ccccc54)CC3)c12` [Compound 35-R, 4-(5-methyl-7H-pyrrolo[2,3-d]pyrimidin-4-yl)-N-tetralin-1-yl-3,6-dihydro-2H-pyridine-1-carboxamide], the inhibition at 1 µM at ROCK2 (setting [1]) came to 12%; at ROCK1 (setting [2]), 24%. Also, the inhibitory constant (Ki) on LIMK2 was 2540 nM; at LIMK1, 851 nM.
As for `CC(=O)NCCCOc1cccc(-c2cccc(NC(=O)N3CC=C(c4ncnc5[nH]cc(C)c45)CC3)c2)c1` [Compound 40, N-(3′-(3-Acetamidopropoxy)-[1,1′-biphenyl]-3-yl)-4-(5-methyl-7H-pyrrolo[2,3-d]pyrimidin-4-yl)-5,6-dihydropyridine-1(2H)-carboxamide], the inhibition at 1 µM on ROCK2 (setting [3]) worked out at 22%; on ROCK1 (setting [4]), 33%. Further, the figures for the inhibition constant Ki at LIMK2 (Lanthascreen Eu binding assay) and on LIMK1 (Lanthascreen Eu binding assay) were 13.4 nM and 10.6 nM, respectively.
The corresponding values for `Cc1c[nH]c2ncnc(C3=CCN(C(=O)Nc4cccc(Oc5ccc(N(C)C)cc5)c4)CC3)c12` [Compound 42, N-[3-[4-(Dimethylamino)phenoxy]phenyl]-4-(5-methyl-7H-pyrrolo[2,3-d]pyrimidin-4-yl)-3,6-dihydro-2H-pyridine-1-carboxamide] are 31%, 37%, 53.3 nM and 30.7 nM.
For the compound `O=C(NC1CCCCC1)N1CC=C(c2ncnc3[nH]cc(C4CC4)c23)CC1` [Compound 83, N-Cyclohexyl-4-(5-cyclopropyl-7H-pyrrolo[2,3-d]pyrimidin-4-yl)-3,6-dihydropyridine-1(2H)-carboxamide], the inhibition at 1 µM on ROCK2 (setting [3]) was -4%; on ROCK1 (setting [4]), 6%. In addition, at LIMK1 (Lanthascreen Eu binding assay), the inhibitory constant (Ki) came to 90.9 nM.
`O=C(Nc1ccccc1)N1CC=C(c2ncnc3[nH]c4c(c23)CCCC4)CC1` [Compound 120, N-Phenyl-4-(6,7,8,9-tetrahydro-5H-pyrimido[4,5-b]indol-4-yl)-3,6-dihydropyridine-1(2H)-carboxamide]: the inhibition at 1 µM is -9% on ROCK2 (setting [1]) and 0% on ROCK1 (setting [2]). For the same compound, the inhibitory constant (Ki) at LIMK2 (Lanthascreen Eu binding assay) was determined as 29.6 nM; on LIMK1 (Lanthascreen Eu binding assay), 14.9 nM.
`O=C(Nc1cccc(-c2ccccc2)c1)N1CC=C(c2ncnc3[nH]c4c(c23)CCC4)CC1` [Compound 123, N-([1,1′-Biphenyl]-3-yl)-4-(5,6,7,8-tetrahydrocyclopenta[4,5]pyrrolo[2,3-d]pyrimidin-4-yl)-3,6-dihydropyridine-1(2H)-carboxamide]: the inhibition at 1 µM on ROCK2 (setting [1]) worked out at 1%; at ROCK1 (setting [2]), 10%. Further, the values for the inhibition constant (Ki) on LIMK2 (Lanthascreen Eu binding assay) and on LIMK1 (Lanthascreen Eu binding assay) were 16.2 nM and 11.5 nM, respectively.
In the case of `O=C(Nc1cccc(-c2ccncc2)c1)N1CC=C(c2ncnc3[nH]c4c(c23)CCC4)CC1` [Compound 124, N-(3-(Pyridin-4-yl)phenyl)-4-(5,6,7,8-tetrahydrocyclopenta [4,5]pyrrolo[2,3-d]pyrimidin-4-yl)-3,6-dihydropyridine-1(2H)-carboxamide], the values for the inhibition at 1 µM at ROCK2 (setting [3]) and at ROCK1 (setting [4]) were 2% and 7%, respectively. Further, the Ki is 19.6 nM on LIMK2 (Lanthascreen Eu binding assay) and 6.49 nM at LIMK1 (Lanthascreen Eu binding assay).
On to `O=C(Nc1cccc(Oc2ccccc2)c1)N1CC=C(c2ncnc3[nH]c4c(c23)CCCC4)CC1` [Compound 126, N-(3-Phenoxyphenyl)-4-(6,7,8,9-tetrahydro-5H-pyrimido[4,5-b]indol-4-yl)-3,6-dihydropyridine-1(2H)-carboxamide], for which the values for the inhibition at 1 µM at ROCK2 (setting [3]) and on ROCK1 (setting [4]) were -5% and 7%, respectively. For the same compound, the inhibitory constant (Ki) on LIMK2 (Lanthascreen Eu binding assay) is 20.5 nM; on LIMK1 (Lanthascreen Eu binding assay), 30.2 nM.
Regarding `COc1cccc(-c2cccc(NC(=O)N3CC=C(c4ncnc5[nH]c6c(c45)CCC6)CC3)c2)c1` [Compound 137, N-[3-(3-Methoxyphenyl)phenyl]-4-(7,9,11-triazatricyclo [6.4.0.02,6]dodeca-1(8),2(6),9,11-tetraen-12-yl)-3,6-dihydropyridine-1(2H)-carboxamide], the figures for the inhibition at 1 µM at ROCK2 (setting [3]) and on ROCK1 (setting [4]) were 4% and -1%, respectively. The inhibition constant (Ki) at LIMK2 (Lanthascreen Eu binding assay) came to 8.59 nM; at LIMK1 (Lanthascreen Eu binding assay), 4.97 nM.
On to `CN1CCc2[nH]c3ncnc(C4=CCN(C(=O)Nc5cccc(F)c5)CC4)c3c2C1` [Compound 160, N-(3-Fluorophenyl)-4-(6-methyl-6,7,8,9-tetrahydro-5H-pyrido[3′,4′:4,5]pyrrolo[2,3-d]pyrimidin-4-yl)-3,6-dihydropyridine-1(2H)-carboxamide], for which the inhibition at 1 µM was -9% on ROCK2 (setting [3]) and 1% on ROCK1 (setting [4]). In addition, the Ki on LIMK2 (Lanthascreen Eu binding assay) came out at 2440 nM; at LIMK1 (Lanthascreen Eu binding assay) it was 1170 nM.
Consider `CN1CCc2[nH]c3ncnc(C4=CCN(C(=O)Nc5cccc(Cl)c5)CC4)c3c2C1` [Compound 161, N-(3-Chlorophenyl)-4-(6-methyl-6,7,8,9-tetrahydro-5H-pyrido[3′,4′:4,5]pyrrolo[2,3-d]pyrimidin-4-yl)-3,6-dihydropyridine-1(2H)-carboxamide], for which the inhibition at 1 µM was -9% on ROCK2 (setting [1]) and 1% at ROCK1 (setting [2]). In addition, the Ki on LIMK2 (Lanthascreen Eu binding assay) is 2440 nM; on LIMK1 (Lanthascreen Eu binding assay), 1170 nM.
Consider `CC1=CC(C)=[N+]2C1=Cc1ccc(CCC(=O)NCCCOc3cccc(-c4cccc(NC(=O)N5CC=C(c6ncnc7[nH]cc(C8CC8)c67)CC5)c4)c3)n1[B-]2(F)F` [Compound 168, N-(3′-(3-(3-(5,5-Difluoro-7,9-dimethyl-5H-dipyrrolo[1,2-c:2′,1′-f][1,3,2]diazaborinin-3-yl)propanamido)propoxy)-[1,1′-biphenyl]-3-yl)-4-(5-isopropyl-7H-pyrrolo[2,3-d]pyrimidin-4-yl)-3,6-dihydropyridine-1(2H)-carboxamide], for which the “% inhibition (ROCK2) 1 uM” value on ROCK2 is 20%. Further, the “% inhibition (ROCK1) 1 uM” value on ROCK1 came to 2%.
Take `CC1=CC(C)=[N+]2C1=Cc1ccc(CCC(=O)NCCCOc3cccc(-c4cccc(NC(=O)N5CC=C(c6ncnc7[nH]cc(C)c67)CC5)c4)c3)n1[B-]2(F)F` [Compound 169, N-(3′-(3-(3-(5,5-difluoro-7,9-dimethyl-5H-dipyrrolo[1,2-c:2′,1′-f][1,3,2]diazaborinin-3-yl)propanamido)propoxy)-[1,1′-biphenyl]-3-yl)-4-(5-methyl-7H-pyrrolo [2,3-d]pyrimidin-4-yl)-3,6-dihydropyridine-1(2H)-carboxamide]: the “% inhibition (ROCK1) 1 uM” value at ROCK1 was 10%.
